Laboratory results from ChEMBL document CHEMBL3991601, “The target landscape of clinical kinase drugs” (Science, 2017).
Where a name gives a salt, the structure may show the parent alone. Active and inactive are the calls of the source.

Legend:
[1] = molecular target: T1, Delta(24)-sterol reductase (Homo sapiens, UniProt Q15392)
T1 sequence (Q15392 whole entry): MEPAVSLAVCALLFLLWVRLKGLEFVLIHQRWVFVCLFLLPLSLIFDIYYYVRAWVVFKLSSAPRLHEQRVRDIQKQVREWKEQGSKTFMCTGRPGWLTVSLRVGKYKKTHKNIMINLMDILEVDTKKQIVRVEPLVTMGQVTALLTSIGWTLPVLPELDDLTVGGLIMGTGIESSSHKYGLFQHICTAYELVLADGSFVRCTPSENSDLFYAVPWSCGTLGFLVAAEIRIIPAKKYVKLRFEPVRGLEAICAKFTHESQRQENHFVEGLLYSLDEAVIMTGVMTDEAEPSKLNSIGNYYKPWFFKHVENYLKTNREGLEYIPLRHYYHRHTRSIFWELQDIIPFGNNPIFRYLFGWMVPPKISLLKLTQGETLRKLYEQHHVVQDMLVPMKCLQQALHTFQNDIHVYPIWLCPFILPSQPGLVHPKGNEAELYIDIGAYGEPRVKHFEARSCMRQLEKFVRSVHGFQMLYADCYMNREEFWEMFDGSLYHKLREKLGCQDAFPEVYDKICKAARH

[2] = molecular target: T2, MAP/microtubule affinity-regulating kinase 4 (Homo sapiens, UniProt Q96L34)
T2 sequence (Q96L34 whole entry): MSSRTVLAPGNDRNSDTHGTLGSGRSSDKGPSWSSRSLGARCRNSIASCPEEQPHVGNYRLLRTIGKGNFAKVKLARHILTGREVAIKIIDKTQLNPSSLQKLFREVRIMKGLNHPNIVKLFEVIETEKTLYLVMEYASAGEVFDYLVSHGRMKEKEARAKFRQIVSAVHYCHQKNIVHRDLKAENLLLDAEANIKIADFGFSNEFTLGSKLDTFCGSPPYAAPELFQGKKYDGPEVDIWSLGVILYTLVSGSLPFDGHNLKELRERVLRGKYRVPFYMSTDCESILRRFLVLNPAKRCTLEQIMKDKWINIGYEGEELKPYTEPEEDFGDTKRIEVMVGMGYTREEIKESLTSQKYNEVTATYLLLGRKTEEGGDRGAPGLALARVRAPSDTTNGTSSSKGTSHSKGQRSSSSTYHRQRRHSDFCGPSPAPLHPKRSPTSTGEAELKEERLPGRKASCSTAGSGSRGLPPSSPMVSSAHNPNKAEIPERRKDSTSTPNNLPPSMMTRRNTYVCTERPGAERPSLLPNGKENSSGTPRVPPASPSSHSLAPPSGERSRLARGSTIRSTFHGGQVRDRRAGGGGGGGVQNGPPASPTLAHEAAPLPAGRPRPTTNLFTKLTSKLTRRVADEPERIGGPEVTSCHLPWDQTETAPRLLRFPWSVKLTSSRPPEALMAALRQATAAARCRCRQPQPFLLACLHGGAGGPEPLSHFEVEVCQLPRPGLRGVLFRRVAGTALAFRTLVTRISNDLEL

[3] = molecular target: T3, Serine/threonine-protein kinase Nek1 (Homo sapiens, UniProt Q96PY6)
T3 sequence (Q96PY6 whole entry): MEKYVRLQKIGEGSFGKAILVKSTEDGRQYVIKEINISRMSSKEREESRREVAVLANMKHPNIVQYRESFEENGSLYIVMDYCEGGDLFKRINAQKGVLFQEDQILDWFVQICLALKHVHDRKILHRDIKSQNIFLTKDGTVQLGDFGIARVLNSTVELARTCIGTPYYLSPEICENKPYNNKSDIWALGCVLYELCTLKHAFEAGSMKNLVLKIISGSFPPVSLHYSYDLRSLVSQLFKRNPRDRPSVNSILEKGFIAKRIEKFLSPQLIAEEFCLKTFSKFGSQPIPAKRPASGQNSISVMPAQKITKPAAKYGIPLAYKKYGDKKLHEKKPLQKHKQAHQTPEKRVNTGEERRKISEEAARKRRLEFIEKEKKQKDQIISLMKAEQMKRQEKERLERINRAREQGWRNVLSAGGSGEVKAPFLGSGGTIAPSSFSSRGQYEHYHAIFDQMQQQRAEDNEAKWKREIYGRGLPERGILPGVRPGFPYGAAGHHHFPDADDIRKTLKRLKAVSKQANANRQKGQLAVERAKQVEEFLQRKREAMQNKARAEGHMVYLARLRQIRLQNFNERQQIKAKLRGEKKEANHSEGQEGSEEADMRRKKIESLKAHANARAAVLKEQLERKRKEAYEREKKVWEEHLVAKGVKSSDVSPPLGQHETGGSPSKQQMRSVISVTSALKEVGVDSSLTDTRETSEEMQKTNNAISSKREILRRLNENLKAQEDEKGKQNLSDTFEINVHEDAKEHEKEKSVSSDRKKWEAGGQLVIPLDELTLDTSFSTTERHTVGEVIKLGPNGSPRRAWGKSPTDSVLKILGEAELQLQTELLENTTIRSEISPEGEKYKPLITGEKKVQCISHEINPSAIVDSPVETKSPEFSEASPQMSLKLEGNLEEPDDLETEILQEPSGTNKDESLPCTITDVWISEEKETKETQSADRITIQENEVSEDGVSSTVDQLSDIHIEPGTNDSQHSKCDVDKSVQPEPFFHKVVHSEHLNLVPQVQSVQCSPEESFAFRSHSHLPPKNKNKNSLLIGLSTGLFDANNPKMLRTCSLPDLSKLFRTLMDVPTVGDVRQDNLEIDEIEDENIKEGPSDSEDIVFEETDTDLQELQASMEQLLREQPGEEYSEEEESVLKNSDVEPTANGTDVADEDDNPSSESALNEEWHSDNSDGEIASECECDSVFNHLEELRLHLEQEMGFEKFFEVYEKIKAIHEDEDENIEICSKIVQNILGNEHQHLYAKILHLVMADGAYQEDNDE

[4] = molecular target: T4, Bifunctional phosphoribosylaminoimidazole carboxylase/phosphoribosylaminoimidazole succinocarboxamide synthetase (Homo sapiens, UniProt P22234)
T4 sequence (P22234 whole entry): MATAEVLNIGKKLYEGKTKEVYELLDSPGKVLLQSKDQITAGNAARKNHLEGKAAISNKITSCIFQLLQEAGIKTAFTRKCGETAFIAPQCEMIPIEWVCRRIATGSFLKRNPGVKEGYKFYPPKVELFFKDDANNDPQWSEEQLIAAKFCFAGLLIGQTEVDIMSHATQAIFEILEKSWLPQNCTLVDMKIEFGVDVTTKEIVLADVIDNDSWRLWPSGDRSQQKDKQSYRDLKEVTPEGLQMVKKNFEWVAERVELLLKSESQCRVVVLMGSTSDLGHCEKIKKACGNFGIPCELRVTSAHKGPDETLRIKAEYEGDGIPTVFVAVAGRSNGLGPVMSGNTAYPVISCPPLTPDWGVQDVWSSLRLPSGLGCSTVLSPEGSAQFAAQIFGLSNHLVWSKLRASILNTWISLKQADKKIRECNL
Also: in the data inactive means no Kd found up to 30 µM.

| SMILES | Kd [1] | Kd [2] | Kd [3] | Kd [4] |
| --- | --- | --- | --- | --- |
| CO[C@H]1C[C@@H]2CC[C@@H](C)[C@@](O)(O2)C(=O)C(=O)N2CCCC[C@H]2C(=O)O[C@H]([C@H](C)C[C@@H]2CC[C@@H](O)[C@H](OC)C2)CC(=O)[C@H](C)/C=C(\C)[C@@H](O)[C@@H](OC)C(=O)[C@H](C)C[C@H](C)/C=C/C=C/C=C/1C [SIROLIMUS] | > 30 µM (inactive) | > 30 µM (inactive) | > 30 µM (inactive) | > 30 µM (inactive) |
| COc1cc(Nc2ncc3c(n2)-c2ccc(Cl)cc2C(c2c(F)cccc2OC)=NC3)ccc1C(=O)O [ALISERTIB] | > 30 µM (inactive) | > 30 µM (inactive) | > 30 µM (inactive) | > 30 µM (inactive) |
| Cc1cc(Nc2ncnc3ccc(NC4=NC(C)(C)CO4)cc23)ccc1Oc1ccn2ncnc2c1 [TUCATINIB] | > 30 µM (inactive) | > 30 µM (inactive) | > 30 µM (inactive) | > 30 µM (inactive) |
| CCS(=O)(=O)c1cccc(-c2cc(C(=O)NC3CCN(C)CC3)c(C)c3[nH]c4ncc(C)cc4c23)c1 [TAK-901] | > 30 µM (inactive) | 1.03 µM (active) | > 30 µM (inactive) | > 30 µM (inactive) |
| O=C(Cc1ccc(-c2ccc(OCCN3CCOCC3)cc2)cn1)NCc1ccccc1 [TIRBANIBULIN] | > 30 µM (inactive) | > 30 µM (inactive) | > 30 µM (inactive) | > 30 µM (inactive) |
| COc1cc2ncnc(Oc3cccc(NC(=O)Nc4cc(C(C)(C)C(F)(F)F)on4)c3)c2cc1OC [CEP-32496] | > 30 µM (inactive) | > 30 µM (inactive) | > 30 µM (inactive) | > 30 µM (inactive) |
| CCS(=O)(=O)N1CCN(c2ccc(Nc3ncc(C(N)=O)c(NC4CC4)n3)cc2)CC1 [Cerdulatinib Hydrochloride] | > 30 µM (inactive) | > 30 µM (inactive) | > 30 µM (inactive) | > 30 µM (inactive) |
| Cc1cc(C(=O)NOCCO)c(Nc2ccc(I)cc2F)n(C)c1=O [AZD-8330] | > 30 µM (inactive) | > 30 µM (inactive) | > 30 µM (inactive) | > 30 µM (inactive) |
| C#Cc1cccc(Nc2ncnc3cc(OC)c(OCCCCCCC(=O)NO)cc23)c1 [CUDC-101] | > 30 µM (inactive) | > 30 µM (inactive) | > 30 µM (inactive) | > 30 µM (inactive) |
| NC1(c2ccc(-c3nc4ccn5c(=O)[nH]nc5c4cc3-c3ccccc3)cc2)CCC1 [MK-2206] | > 30 µM (inactive) | > 30 µM (inactive) | > 30 µM (inactive) | > 30 µM (inactive) |
| Cc1nc2cc(-c3nn(C(C)C)c4ncnc(N)c34)ccc2o1 | > 30 µM (inactive) | > 30 µM (inactive) | > 30 µM (inactive) | > 30 µM (inactive) |
| O=C1NC(=O)[C@@H](c2cn3c4c(cccc24)CCC3)[C@@H]1c1c[nH]c2ccccc12 [TIVANTINIB] | > 30 µM (inactive) | > 30 µM (inactive) | > 30 µM (inactive) | > 30 µM (inactive) |
| CO[C@H]1C[C@@H]2CC[C@@H](C)[C@@](O)(O2)C(=O)C(=O)N2CCCC[C@H]2C(=O)O[C@H]([C@H](C)C[C@@H]2CC[C@@H](OP(C)(C)=O)[C@H](OC)C2)CC(=O)[C@H](C)/C=C(\C)[C@@H](O)[C@@H](OC)C(=O)[C@H](C)C[C@H](C)/C=C/C=C/C=C/1C [RIDAFOROLIMUS] | > 30 µM (inactive) | > 30 µM (inactive) | > 30 µM (inactive) | > 30 µM (inactive) |
| COCC(=O)NC/C=C/c1ccc2ncnc(Nc3ccc(Oc4ccc(C)nc4)c(C)c3)c2c1 [CP-724714] | > 30 µM (inactive) | > 30 µM (inactive) | > 30 µM (inactive) | > 30 µM (inactive) |
| CNC(=O)c1nn(C)c2c1C(C)(C)Cc1cnc(Nc3ccc(N4CCN(C)CC4)cc3)nc1-2 [MILCICLIB] | > 30 µM (inactive) | > 30 µM (inactive) | > 30 µM (inactive) | > 30 µM (inactive) |
| CC(=O)NCC(=O)N1[C@@H]2CC[C@H]1c1ccc(Nc3ncc(C(F)(F)F)c(NC4CCC4)n3)cc12 [PF-03814735] | > 30 µM (inactive) | 0.009 µM (active) | > 30 µM (inactive) | > 30 µM (inactive) |
| COc1ncc(-c2ccc3nccc(-c4ccnnc4)c3c2)cc1NS(=O)(=O)c1ccc(F)cc1F [OMIPALISIB] | > 30 µM (inactive) | > 30 µM (inactive) | > 30 µM (inactive) | > 30 µM (inactive) |
| Cc1cnc(NC(=O)Nc2cc(Br)c(C)cc2OC[C@@H]2CNCCO2)cn1 [RABUSERTIB] | > 30 µM (inactive) | > 30 µM (inactive) | > 30 µM (inactive) | > 30 µM (inactive) |
| O=C(Nc1nc2cccc(-c3ccc(CN4CCS(=O)(=O)CC4)cc3)n2n1)C1CC1 [FILGOTINIB] | > 30 µM (inactive) | > 30 µM (inactive) | > 30 µM (inactive) | > 30 µM (inactive) |
| Cc1nc(Nc2n[nH]c3c2CN(C(=O)N[C@H](CN(C)C)c2ccccc2)C3(C)C)c2sccc2n1 [PF-03758309] | > 30 µM (inactive) | 0.029 µM (active) | > 30 µM (inactive) | > 30 µM (inactive) |
| Cc1csc(-c2nnc(Nc3ccc(Oc4ncccc4-c4ccnc(N)n4)cc3)c3ccccc23)c1 [AMG-900] | > 30 µM (inactive) | > 30 µM (inactive) | 2.38 µM (active) | > 30 µM (inactive) |
| COCc1c(-c2ccc(NC(=O)Nc3cc(C(F)(F)F)ccc3F)c(F)c2)c2c(N)ncnn2c1CN1CCOCC1 | > 30 µM (inactive) | > 30 µM (inactive) | > 30 µM (inactive) | > 30 µM (inactive) |
| Nc1ncnc2c1c(-c1cccc(OCc3ccccc3)c1)cn2[C@H]1C[C@@H](CN2CCC2)C1 [AEW-541] | > 30 µM (inactive) | > 30 µM (inactive) | > 30 µM (inactive) | > 30 µM (inactive) |
